Assay results reported in ChEMBL document CHEMBL2074497, “Involvement of rat organic anion transporter 3 (rOAT3) in cephaloridine-induced nephrotoxicity: in comparison with rOAT1” (Life Sci, 2002).

Experiments:
Format in all cases: functional, cell-based
[1] = target: T1, Organic anion transporter 3 (Rattus norvegicus, UniProt Q9R1U7); experiment: TP_TRANSPORTER: inhibition of Estrone sulfate uptake in OAT3-expressing S2 cells
T1 sequence (Q9R1U7 whole entry): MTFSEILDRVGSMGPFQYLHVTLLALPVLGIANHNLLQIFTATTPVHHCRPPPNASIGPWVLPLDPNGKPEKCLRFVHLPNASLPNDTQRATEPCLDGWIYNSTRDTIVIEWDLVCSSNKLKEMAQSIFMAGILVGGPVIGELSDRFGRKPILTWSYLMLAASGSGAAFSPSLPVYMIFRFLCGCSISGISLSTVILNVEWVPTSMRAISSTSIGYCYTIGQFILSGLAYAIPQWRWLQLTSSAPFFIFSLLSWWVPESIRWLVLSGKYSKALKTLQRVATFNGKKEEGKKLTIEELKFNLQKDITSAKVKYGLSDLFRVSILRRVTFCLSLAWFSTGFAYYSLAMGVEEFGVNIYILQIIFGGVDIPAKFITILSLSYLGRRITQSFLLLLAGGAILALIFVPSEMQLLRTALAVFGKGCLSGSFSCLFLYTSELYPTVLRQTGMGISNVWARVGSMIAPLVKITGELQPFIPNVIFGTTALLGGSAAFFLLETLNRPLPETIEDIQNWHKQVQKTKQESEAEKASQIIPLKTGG

[2] = target: T2, Solute carrier family 22 member 6 (Rattus norvegicus, UniProt O35956); experiment: TP_TRANSPORTER: inhibition of PAH uptake in OAT1-expressing S2 cells
T2 sequence (O35956 whole entry): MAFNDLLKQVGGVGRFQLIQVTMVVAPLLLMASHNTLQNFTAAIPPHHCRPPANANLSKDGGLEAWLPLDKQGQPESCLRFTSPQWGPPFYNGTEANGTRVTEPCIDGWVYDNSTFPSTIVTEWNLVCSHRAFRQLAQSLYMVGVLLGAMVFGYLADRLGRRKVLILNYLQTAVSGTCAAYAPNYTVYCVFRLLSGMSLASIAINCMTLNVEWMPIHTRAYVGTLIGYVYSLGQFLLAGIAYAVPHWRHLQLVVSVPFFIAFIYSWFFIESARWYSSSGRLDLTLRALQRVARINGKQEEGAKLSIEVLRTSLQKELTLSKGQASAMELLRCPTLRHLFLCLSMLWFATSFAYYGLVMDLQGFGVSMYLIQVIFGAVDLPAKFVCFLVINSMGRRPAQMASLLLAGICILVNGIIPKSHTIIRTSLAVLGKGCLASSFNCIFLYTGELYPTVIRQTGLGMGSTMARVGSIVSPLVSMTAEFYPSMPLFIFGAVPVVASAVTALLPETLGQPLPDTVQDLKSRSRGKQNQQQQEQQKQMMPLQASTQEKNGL

[3] = target: T1, Organic anion transporter 3; experiment: TP_TRANSPORTER: uptake in OAT3-expressing S2 cells; conditions: mouse

Row | Structure (SMILES) | IC50 [1] | Ki [1] | further results
1 | CC1=C(C(=O)O)N2C(=O)[C@@H](NC(=O)[C@H](N)c3ccc(O)cc3)[C@H]2SC1 [CEFADROXIL] | 1780 µM | – | –
2 | Cn1nnnc1SCC1=C(C(=O)O)N2C(=O)[C@@H](NC(=O)[C@H](O)c3ccccc3)[C@H]2SC1 [CEFAMANDOLE] | 90 µM | – | –
3 | Cc1nnc(SCC2=C(C(=O)O)N3C(=O)[C@@H](NC(=O)Cn4cnnn4)[C@H]3SC2)s1 [CEFAZOLIN] | – | 780 µM | –
4 | CCN1CCN(C(=O)N[C@@H](C(=O)N[C@@H]2C(=O)N3C(C(=O)O)=C(CSc4nnnn4C)CS[C@H]23)c2ccc(O)cc2)C(=O)C1=O [CEFOPERAZONE] | – | 670 µM | –
5 | CO/N=C(\C(=O)N[C@@H]1C(=O)N2C(C(=O)O)=C(COC(C)=O)CS[C@H]12)c1csc(N)n1 [CEFOTAXIME] | 800 µM | – | –
6 | CO/N=C(\C(=O)N[C@@H]1C(=O)N2C(C(=O)O)=C(CSc3nc(=O)c(=O)[nH]n3C)CS[C@H]12)c1csc(N)n1 [CEFTRIAXONE] | > 2000 µM | – | –
7 | CC1=C(C(=O)O)N2C(=O)[C@@H](NC(=O)[C@H](N)c3ccccc3)[C@H]2SC1 [CEPHALEXIN ANHYDROUS] | 630 µM | – | IC50 [2]: > 2000 µM
8 | O=C(Cc1cccs1)N[C@@H]1C(=O)N2C(C(=O)[O-])=C(C[n+]3ccccc3)CS[C@H]12 [CEPHALORIDINE] | – | 1140 µM | Activity [3]: substrate [+]
9 | CC(=O)OCC1=C(C(=O)O)N2C(=O)[C@@H](NC(=O)Cc3cccs3)[C@H]2SC1 [CEPHALOTHIN] | – | 48 µM | –
